Earlier results, collected in patent publication US20250000913A1, “SALMONELLA ENGINEERED FOR NONTOXIC COLONIZATION OF TUMORS” (priority 2021, published 2025).

What was measured:
[1] = mouse, in vivo
[2] = in vivo

Compound | day on which weight gain resumed [1] [days] | weight loss [1] | half-life of circulating CKD-516 [2]
COc1cccc2c1C(=O)c1c(O)c3c(c(O)c1C2=O)C[C@@](O)(C(=O)CO)C[C@@H]3O[C@H]1C[C@H](N)[C@H](O)[C@H](C)O1 [doxorubicin] | 21 | over 25% | –
COc1cc(C(=O)c2ccc(-c3csc(NC(=O)[C@@H](N)C(C)C)n3)cc2-n2cncn2)cc(OC)c1OC.Cl [CKD-516] | – | – | about 5 hours
